The term Ki denotes a dissociation constant, usually derived from enzyme kinetics or from competition with a known ligand. The term EC50 denotes the concentration needed to bring the measured effect to its halfway point.

Consider seven compounds from patent publication US8933040B2, “Selective glycosidase inhibitors and uses thereof” (priority 2010, dated 2015).

Like-named read-outs stand apart in the source and are kept apart here.

The target in assay [1] is human O-GlcNAcase (Homo sapiens (Human), UniProt O60502). In words: Fluorescence-based assay for determination of KI values for inhibition of O-GlcNAcase activity. The format is biochemical. How it is done:
Assay for Determination of KI Values for Inhibition of O-GlcNAcase Activity
Experimental Procedure for Kinetic Analyses:
Enzymatic reactions were carried out in a reaction containing 50 mM NaH2PO4, 100 mM NaCl and 0.1% BSA (pH 7.0) using 2 mM 4-Methylumbelliferyl N-acetyl-β-D-glucosaminide dihydrate (Sigma M2133) dissolved in ddH2O, as a substrate. The amount of purified human O-GlcNAcase enzyme used in the reaction was 0.7 nM. Test compound of varying concentrations was added to the enzyme prior to initiation of the reaction. The reaction was performed at room temperature in a 96-well plate and was initiated with the addition of substrate. […] The slope of product production was determined for each concentration of compound tested and plotted, using standard curve fitting algorithms for sigmoidal dose response curves. The values for a four parameter logistic curve fit of the data were determined.

The target of assay [2] is O-GlcNAcase (Rattus norvegicus (Rat), UniProt Q8VIJ5). Briefly: Cell-based ELISA for cellular activity of O-GlcNAcase inhibitors (O-GlcNAcylated protein, RL-2 antibody). The text has this:
Assay for Determination of Cellular Activity for Compounds that Inhibit O-GlcNAcase Activity
Inhibition of O-GlcNAcase, which removes O-GlcNAc from cellular proteins, results in an increase in the level of O-GlcNAcylated protein in cells. An increase in O-GlcNAcylated protein can be measured by an antibody, such as RL-2, that binds to O-GlcNAcylated protein. The amount of O-GlcNAcylated protein:RL2 antibody interaction can be measured by enzyme linked immunosorbant assay (ELISA) procedures.
A variety of tissue culture cell lines, expressing endogenous levels of O-GlcNAcase, can be utilized; examples include rat PC-12, and human U-87, or SK—N—SH cells. Rat PC-12 cells were plated in 96-well plates with approximately 10,000 cells/well. Compounds to be tested were dissolved in DMSO, either 2 or 10 mM stock solution, and then diluted with DMSO and water in a two-step process using a Tecan workstation. […] If desired, the total protein concentration of samples was determined using 20 μL of the sample using the BCA method. […]
The values for a four parameter logistic curve fit of the data were determined, with the inflection point of the curve being the potency value for the test compound.
A general note: In an ELISA, binding on a coated surface is turned into a signal by an enzyme label.

[3] abbreviates: purified human O-GlcNAcase 0.7 nM, 2 mM 4-Methylumbelliferyl N-acetyl-β-D-glucosaminide, pH 7.0, Cheng-Prusoff, read-out: Fluorescence-based hOGA Ki.

human O-GlcNAcase, sequence (O60502 whole entry): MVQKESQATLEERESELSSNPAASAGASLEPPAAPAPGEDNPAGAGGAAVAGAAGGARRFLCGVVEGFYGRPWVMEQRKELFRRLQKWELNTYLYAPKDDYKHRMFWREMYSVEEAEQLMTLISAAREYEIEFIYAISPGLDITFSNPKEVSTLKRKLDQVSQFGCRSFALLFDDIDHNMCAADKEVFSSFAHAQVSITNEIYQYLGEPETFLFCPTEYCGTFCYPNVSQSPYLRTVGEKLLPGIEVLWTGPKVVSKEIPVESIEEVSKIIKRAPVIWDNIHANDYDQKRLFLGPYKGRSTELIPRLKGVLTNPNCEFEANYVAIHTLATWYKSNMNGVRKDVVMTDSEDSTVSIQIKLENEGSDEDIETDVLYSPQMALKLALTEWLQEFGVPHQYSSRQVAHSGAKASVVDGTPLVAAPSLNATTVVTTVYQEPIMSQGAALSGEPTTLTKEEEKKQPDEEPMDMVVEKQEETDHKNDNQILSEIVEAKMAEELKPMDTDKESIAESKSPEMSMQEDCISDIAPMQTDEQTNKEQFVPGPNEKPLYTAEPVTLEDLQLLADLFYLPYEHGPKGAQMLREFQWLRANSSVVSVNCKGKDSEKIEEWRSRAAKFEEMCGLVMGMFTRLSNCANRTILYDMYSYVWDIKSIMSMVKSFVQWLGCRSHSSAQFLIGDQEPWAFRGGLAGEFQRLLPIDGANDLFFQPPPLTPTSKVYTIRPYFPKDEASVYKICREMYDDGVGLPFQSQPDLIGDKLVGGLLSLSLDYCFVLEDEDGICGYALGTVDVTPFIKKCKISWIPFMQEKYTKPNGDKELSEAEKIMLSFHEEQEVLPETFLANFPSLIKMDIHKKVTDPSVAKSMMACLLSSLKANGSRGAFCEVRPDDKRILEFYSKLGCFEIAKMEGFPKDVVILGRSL
O-GlcNAcase, sequence (Q8VIJ5 whole entry): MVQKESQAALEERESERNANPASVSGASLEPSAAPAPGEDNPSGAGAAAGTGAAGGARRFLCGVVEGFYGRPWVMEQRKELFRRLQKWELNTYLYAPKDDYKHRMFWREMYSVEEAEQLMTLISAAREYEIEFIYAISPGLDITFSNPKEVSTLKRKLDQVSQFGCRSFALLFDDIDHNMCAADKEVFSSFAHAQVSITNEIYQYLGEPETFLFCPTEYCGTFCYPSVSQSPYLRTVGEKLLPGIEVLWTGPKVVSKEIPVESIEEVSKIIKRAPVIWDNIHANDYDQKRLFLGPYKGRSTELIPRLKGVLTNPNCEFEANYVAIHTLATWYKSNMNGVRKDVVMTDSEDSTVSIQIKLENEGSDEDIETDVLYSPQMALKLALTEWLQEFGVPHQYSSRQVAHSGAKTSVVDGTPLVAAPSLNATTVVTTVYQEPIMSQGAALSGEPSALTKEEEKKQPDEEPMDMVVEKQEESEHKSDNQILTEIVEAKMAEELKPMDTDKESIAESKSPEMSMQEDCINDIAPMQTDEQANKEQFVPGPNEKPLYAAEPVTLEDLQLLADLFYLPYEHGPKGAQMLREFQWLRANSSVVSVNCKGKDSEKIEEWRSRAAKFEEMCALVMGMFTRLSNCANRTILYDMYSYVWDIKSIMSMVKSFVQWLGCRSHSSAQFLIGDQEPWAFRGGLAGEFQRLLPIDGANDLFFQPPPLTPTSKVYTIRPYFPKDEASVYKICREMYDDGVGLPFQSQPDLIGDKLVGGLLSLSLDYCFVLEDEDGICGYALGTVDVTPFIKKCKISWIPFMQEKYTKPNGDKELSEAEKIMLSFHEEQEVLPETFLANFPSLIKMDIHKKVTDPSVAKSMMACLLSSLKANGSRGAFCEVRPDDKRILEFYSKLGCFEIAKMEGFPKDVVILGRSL

For the compound `OC[C@H]1O[C@@H]2SC(N3CCOCC3)=N[C@@H]2[C@@H](O)[C@@H]1O` [Example 14, (3aR,5R,6S,7R,7aR)-5-(hydroxymethyl)-2-morpholino-5,6,7,7a-tetrahydro-3aH-pyrano[3,2-d]thiazole-6,7-diol], the Ki in assay [1] (setting [3]) came out at 289 nM. `O[C@H]1[C@H](O)[C@@H](CNC2CC2)O[C@@H]2SC(N3CCC3)=N[C@H]12` [Example 16, (3aR,5R,6S,7R,7aR)-2-(azetidin-1-yl)-5-((cyclopropylamino)methyl)-5,6,7,7a-tetrahydro-3aH-pyrano[3,2-d]thiazole-6,7-diol]: in assay [1] (setting [3]), the inhibitory constant (Ki) is 101 nM. With `OC[C@H]1O[C@@H]2SC(N3CC(F)C3)=N[C@@H]2[C@@H](O)[C@@H]1O` [Example 3, (3aR,5R,6S,7R,7aR)-2-(3-fluoroazetidin-1-yl)-5-(hydroxymethyl)-5,6,7,7a-tetrahydro-3aH-pyrano[3,2-d]thiazole-6,7-diol], in assay [1] (setting [3]), the Ki turned out to be 30 nM.

For the compound `OC[C@H]1O[C@@H]2SC(N3CCCC3)=N[C@@H]2[C@@H](O)[C@@H]1O` [Example 7, (3aR,5R,6S,7R,7aR)-5-(hydroxymethyl)-2-(pyrrolidin-1-yl)-5,6,7,7a-tetrahydro-3aH-pyrano[3,2-d]thiazole-6,7-diol], in assay [2] (Rat PC-12 cells, 24 h treatment, increase in O-GlcNAcylated protein detected with RL-2 antibody, read-out: Cell-based ELISA EC50), the EC50 was determined as 165 nM. In assay [1] (setting [3]), the Ki was determined as 13 nM. Turning to `OC[C@H]1O[C@@H]2SC(N3CCC3)=N[C@@H]2[C@@H](O)C1O` (stereo in doubt) [Example 1, (3aR,5R,6S,7R,7aR)-2-(azetidin-1-yl)-5-(hydroxymethyl)-5,6,7,7a-tetrahydro-3aH-pyrano[3,2-d]thiazole-6,7-diol], in assay [2], the EC50 worked out at 28 nM. This compound also had an inhibition constant Ki in assay [1] of 3.3 nM. On to `COC1CN(C2=N[C@@H]3[C@@H](O)[C@H](O)[C@@H](CO)O[C@@H]3S2)C1` [Example 5, (3aR,5R,6S,7R,7aR)-5-(hydroxymethyl)-2-(3-methoxyazetidin-1-yl)-5,6,7,7a-tetrahydro-3aH-pyrano[3,2-d]thiazole-6,7-diol], for which the inhibition constant (Ki) in assay [1] (setting [3]) came out at 142 nM.

As to `CN(C)C(=O)OC[C@H]1O[C@@H]2SC(N3CCC3)=N[C@@H]2[C@@H](O)[C@@H]1O` [Example 18, ((3aR,5R,6S,7R,7aR)-2-(azetidin-1-yl)-6,7-dihydroxy-5,6,7,7a-tetrahydro-3aH-pyrano[3,2-d]thiazol-5-yl)methyl dimethylcarbamate], the Ki in assay [1] (setting [3]) was 350 nM.
